Measured values published in patent US20100087413A1, “Prevention and treatment of inflammation-induced and/or immune-mediated bone loss” (priority 2003, published 2010).

Molecular target: T1, human 11β-HSD1 (Homo sapiens, UniProt P28845)
T1 construct: expressed in transfected cells; host or cells: HEK-293 cells, stably transfected; cell lysate
Assay: 11β-HSD1 reductase activity (conversion of radiolabelled cortisone to cortisol) in lysates of stably transfected HEK-293 cells
Type: biochemical
Details: 10 μM CBX, 100 nM cortisone substrate

T1 sequence (P28845 whole entry): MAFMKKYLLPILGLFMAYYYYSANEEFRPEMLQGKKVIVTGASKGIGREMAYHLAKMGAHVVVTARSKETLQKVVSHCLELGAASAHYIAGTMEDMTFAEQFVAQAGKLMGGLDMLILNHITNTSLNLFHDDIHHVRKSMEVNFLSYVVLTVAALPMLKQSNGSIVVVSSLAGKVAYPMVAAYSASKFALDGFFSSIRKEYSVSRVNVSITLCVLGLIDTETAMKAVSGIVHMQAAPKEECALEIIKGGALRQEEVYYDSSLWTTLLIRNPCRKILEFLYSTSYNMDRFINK

- 11β-HSD1 % of control: 4.43 % of control
Compound: CC1(C)[C@@H](OC(=O)CCC(=O)O)CC[C@]2(C)[C@H]3C(=O)C=C4[C@@H]5C[C@@](C)(C(=O)O)CC[C@]5(C)CC[C@@]4(C)[C@]3(C)CC[C@@H]12 [CBX, carbenoxolone]
